The numbers were not newly measured in patent US20030165566A1, “Sedative non-benzodiazepine formulations” (priority 2002, published 2003), which cites them from elsewhere.

Counter-ions that a name gives are not always drawn. Like-named read-outs stand apart in the source and are kept apart here.

For data set [1] the following is noted: in vivo.
For data set [2] the following is noted: 10 mg.
Where [3] appears, read: single 20 mg oral dose, elderly (>70 years) vs 20 to 40 years.
[4] abbreviates: single 20 mg oral dose, elderly subjects (>70 years).
The mark [5] stands for this setting: single 20 mg oral dose, younger adults (20 to 40 years).
Where [6] appears, read: 20 minutes after a meal vs fasting.

Consider `Cc1ccc(-c2nc3ccc(C)cn3c2CC(=O)N(C)C)cc1` [Zolpidem], for which, under setting [3], the “increase of mean AUC, elderly vs younger adults” value is listed as 64%; the “increase of mean Cmax, elderly vs younger adults” value is 50%; the “increase of mean T1/2, elderly vs younger adults” value is given as 32%. Under setting [4], the “mean AUC” value is listed as 1,562 ng/hr/ml, the “mean Cmax” value was 284 ng/mL and the “mean T1/2” value was 2.9 h. Under setting [5], the “mean AUC” value is 955 ng/h/mL, the “mean Cmax” value is 255 ng/mL and the “mean T1/2” value was 2.2 h. Further, the half-life entry in data set [1] is reported as “approximately 2.5 hours”.

As for `Cc1ccc(-c2nc3ccc(C)cn3c2CC(=O)N(C)C)cc1` [zolpidem tartrate], the accumulation entry (elderly subjects, nightly oral dosing 10 mg for 1 week) is “did not accumulate”. For the same compound, the “mean Tmax” value in data set [2] (20 minutes after a meal) was 2.2 h. For the same compound, in data set [2] (setting [6]), the “decrease of mean AUC with food” value is given as 15%, the “decrease of mean Cmax with food” value is reported as 25%, the half-life with food entry is on record as “remained unchanged” and the “prolongation of mean Tmax with food” value is 60%. In addition, in data set [2] (fasting), the “mean Tmax” value is 1.4 h.
